{"source": "ChEMBL document CHEMBL5365543", "about": "“Benzamidine Conjugation Converts Expelled Potential Active Agents into Antifungals against Drug-Resistant Fungi” (J Med Chem, 2023)", "key": {"[1]": {"tested_on": "Candida albicans", "test": "Antifungal activity against clinical isolate Candida albicans YEM15 overexpressing efflux pump CdrL and Cdr2 assessed as inhibition of fungal growth measured after 24 hrs by CLSI based microtiter plate analysis", "format": "functional"}, "[2]": {"tested_on": "Candida albicans", "test": "Induction of drug resistance in wild-type Candida albicans SC5314 assessed as change in MIC at 0.5 times of MIC measured after 30 passages by broth microdilution method", "format": "functional"}, "[3]": {"test": "Cytotoxicity against human HBE cells assessed as inhibition of cell growth measured after 4 hrs by MTT assay", "format": "toxicity, cell-based"}, "[4]": {"test": "Selectivity ratio of IC50 for cytotoxicity against human HBE cells to MIC80 for antifungal activity against clinical isolate Candida albicans SCMRRIR34MPG2A harbouring MRR1 mutation overexpressing efflux pump MdrL", "format": "toxicity, cell-based"}, "[5]": {"tested_on": "Candida albicans", "test": "Antifungal activity against clinical isolate Candida albicans SCUPC2R14MPG2A harbouring UPC2 mutation overexpressing […] Erg11 assessed as inhibition of fungal growth measured after 24 hrs by CLSI based microtiter plate analysis", "format": "functional"}, "[6]": {"tested_on": "Candida albicans", "test": "Inhibition of biofilm formation in fluconazole-resistant clinical isolate Candida albicans Gu5 at 2 microg/ml measured after 24 hrs by alamar blue staining based colorimetric analysis", "format": "functional, organism-based", "conditions": "dose 2.0 µg/ml"}, "[7]": {"test": "Selectivity ratio of IC50 for cytotoxicity against human HBE cells to MIC80 for antifungal activity against clinical isolate Candida albicans YEM15 overexpressing efflux pump CdrL and Cdr2", "format": "toxicity, cell-based"}, "[8]": {"test": "Selectivity ratio of IC50 for cytotoxicity against human HBE cells to MIC80 for antifungal activity against clinical isolate fluconazole-resistant Candida tropicalis CT10", "format": "toxicity, cell-based"}, "[9]": {"tested_on": "[Candida] auris", "test": "Inhibition of biofilm formation in clinical isolate fluconazole-resistant Candida auris CBS12774 at 2 microg/ml measured after 24 hrs by alamar blue staining based colorimetric analysis", "format": "functional, organism-based", "conditions": "Candidozyma auris, dose 2.0 µg/ml"}, "[10]": {"tested_on": "Candida albicans", "test": "Antifungal activity against clinical isolate fluconazole-resistant Candida albicans CA632 assessed as inhibition of fungal growth measured after 24 hrs by CLSI based microtiter plate analysis", "format": "functional"}, "[11]": {"test": "Selectivity ratio of IC50 for cytotoxicity against human HBE cells to MIC80 for antifungal activity against clinical isolate fluconazole-resistant Candida albicans DSY296 harbouring TAC1 mutation overexpressing efflux pump CdrL and Cdr2", "format": "toxicity, cell-based"}, "[12]": {"test": "Selectivity ratio of IC50 for cytotoxicity against human HBE cells to MIC80 for antifungal activity against clinical isolate fluconazole-resistant Candida auris CBS12774", "format": "toxicity, cell-based"}}, "note": "Activity calls are given as the source filed them. The rule behind the calls is not given here."}
{"smiles": "C=C1C(=O)[C@@]2(C)CC[C@@H]3[C@@]1(CC[C@H]1[C@@]3(C)CCC[C@@]1(C)C(=O)OCCCOc1ccc(C(=N)N)cc1)C2", "values": [{"measurement": "MIC80", "setting": "[1]", "result": 1, "unit": "µg/mL"}, {"measurement": "Activity", "setting": "[2]", "result": "Active"}, {"measurement": "IC50 at 4 h", "setting": "[3]", "result": 16.7, "unit": "µg/mL"}, {"measurement": "selectivity ratio", "setting": "[4]", "result": 8}, {"measurement": "MIC80", "setting": "[5]", "result": 1, "unit": "µg/mL"}, {"measurement": "inhibition", "setting": "[6]", "result": "Active"}, {"measurement": "selectivity ratio", "setting": "[7]", "result": 8}, {"measurement": "selectivity ratio", "setting": "[8]", "result": 8}, {"measurement": "inhibition", "setting": "[9]", "result": "Active"}, {"measurement": "MIC80", "setting": "[10]", "result": 1, "unit": "µg/mL"}, {"measurement": "selectivity ratio", "setting": "[11]", "result": 8}, {"measurement": "selectivity ratio", "setting": "[12]", "result": 8}]}
